Source: patent publication US10544143B2, “4-azaindole compounds” (BRISTOL-MYERS SQUIBB COMPANY, priority 2017, dated 2020)
Read-outs that look alike come from different tables or passages of the source.

How the values were obtained:
[1] = target: human TLR8 (Homo sapiens (Human), UniProt Q9NR97); assay: TLR8 inhibition reporter assay (HEK-Blue SEAP); settings: R848 15.9 μM;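 also: SEAP driven by IFN-β minimal promoter carrying NF-κB and AP-1 sites, compounds dosed 0.05 nM to 50 µM for 22 h, inhibition scaled between agonist-plus-DMSO and reference-inhibitor wells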
Sequence of human TLR8 (Q9NR97 27-1041): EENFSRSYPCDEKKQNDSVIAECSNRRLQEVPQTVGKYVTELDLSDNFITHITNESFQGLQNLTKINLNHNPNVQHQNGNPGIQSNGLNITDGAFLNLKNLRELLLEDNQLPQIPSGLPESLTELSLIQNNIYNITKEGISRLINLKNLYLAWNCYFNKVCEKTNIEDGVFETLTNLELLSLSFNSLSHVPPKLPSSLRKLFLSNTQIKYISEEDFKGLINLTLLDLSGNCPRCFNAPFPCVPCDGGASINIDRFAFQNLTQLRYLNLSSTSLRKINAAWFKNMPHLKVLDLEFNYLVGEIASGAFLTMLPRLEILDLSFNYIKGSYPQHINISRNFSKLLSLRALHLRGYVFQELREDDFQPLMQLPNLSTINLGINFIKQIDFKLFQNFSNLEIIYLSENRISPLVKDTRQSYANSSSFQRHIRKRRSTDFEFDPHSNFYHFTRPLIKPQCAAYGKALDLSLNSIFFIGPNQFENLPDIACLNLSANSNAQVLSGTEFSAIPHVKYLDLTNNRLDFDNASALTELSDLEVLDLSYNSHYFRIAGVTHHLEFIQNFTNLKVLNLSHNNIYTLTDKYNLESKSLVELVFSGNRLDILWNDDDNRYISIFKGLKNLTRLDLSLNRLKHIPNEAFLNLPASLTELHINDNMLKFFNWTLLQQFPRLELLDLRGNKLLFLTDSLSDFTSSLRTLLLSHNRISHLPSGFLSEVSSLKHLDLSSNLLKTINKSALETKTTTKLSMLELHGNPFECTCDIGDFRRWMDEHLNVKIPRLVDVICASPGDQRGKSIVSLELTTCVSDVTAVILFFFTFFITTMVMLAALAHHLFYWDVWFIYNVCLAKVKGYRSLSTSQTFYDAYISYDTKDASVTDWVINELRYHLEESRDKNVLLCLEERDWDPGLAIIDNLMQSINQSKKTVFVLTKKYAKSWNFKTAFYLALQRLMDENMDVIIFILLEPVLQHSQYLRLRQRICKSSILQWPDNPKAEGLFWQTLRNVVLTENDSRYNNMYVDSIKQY

[2] = target: human TLR7 (Homo sapiens (Human), UniProt Q9NYK1); assay: TLR7 inhibition reporter assay (HEK-Blue SEAP); assay type: cell-based; settings: HEK-Blue human TLR7 cells, gardiquimod 7.5 μM
Sequence of human TLR7 (Q9NYK1 27-1049): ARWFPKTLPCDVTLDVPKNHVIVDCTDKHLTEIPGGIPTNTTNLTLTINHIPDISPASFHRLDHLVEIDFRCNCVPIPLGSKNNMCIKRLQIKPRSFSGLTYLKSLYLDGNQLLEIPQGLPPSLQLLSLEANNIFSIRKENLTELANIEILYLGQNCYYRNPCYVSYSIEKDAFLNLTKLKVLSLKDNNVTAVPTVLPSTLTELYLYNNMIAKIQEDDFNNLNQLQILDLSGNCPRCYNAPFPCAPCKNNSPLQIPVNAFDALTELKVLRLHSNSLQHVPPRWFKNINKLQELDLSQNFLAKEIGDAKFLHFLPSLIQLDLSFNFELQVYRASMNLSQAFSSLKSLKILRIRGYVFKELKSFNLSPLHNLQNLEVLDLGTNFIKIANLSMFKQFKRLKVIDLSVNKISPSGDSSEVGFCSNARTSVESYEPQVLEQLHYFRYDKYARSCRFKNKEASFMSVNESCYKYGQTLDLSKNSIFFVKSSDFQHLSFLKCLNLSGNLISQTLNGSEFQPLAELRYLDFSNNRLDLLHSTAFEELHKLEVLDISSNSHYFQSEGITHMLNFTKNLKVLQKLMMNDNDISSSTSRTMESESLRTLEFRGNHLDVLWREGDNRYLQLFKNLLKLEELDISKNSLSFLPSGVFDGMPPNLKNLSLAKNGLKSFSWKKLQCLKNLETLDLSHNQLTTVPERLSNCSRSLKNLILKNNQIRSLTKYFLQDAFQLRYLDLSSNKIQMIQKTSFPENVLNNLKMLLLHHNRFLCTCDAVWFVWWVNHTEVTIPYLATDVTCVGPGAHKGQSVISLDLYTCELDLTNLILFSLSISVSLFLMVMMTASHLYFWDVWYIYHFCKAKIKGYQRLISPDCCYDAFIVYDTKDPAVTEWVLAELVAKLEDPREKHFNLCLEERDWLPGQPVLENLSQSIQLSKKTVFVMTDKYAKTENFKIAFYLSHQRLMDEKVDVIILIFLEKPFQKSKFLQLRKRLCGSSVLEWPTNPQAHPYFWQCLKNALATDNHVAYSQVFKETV

[3] = target: human TLR9 (Homo sapiens (Human), UniProt Q9NR96); assay: TLR9 inhibition reporter assay (HEK-Blue SEAP); settings: ODN2006 5 nM;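 also: SEAP driven by an IFN-β minimal promoter with NF-κB and AP-1 sites, read after 22 h, compounds dosed 0.05 nM–50 µM, inhibition scaled between agonist plus DMSO and reference-inhibitor wells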
Sequence of human TLR9 (Q9NR96 26-1032): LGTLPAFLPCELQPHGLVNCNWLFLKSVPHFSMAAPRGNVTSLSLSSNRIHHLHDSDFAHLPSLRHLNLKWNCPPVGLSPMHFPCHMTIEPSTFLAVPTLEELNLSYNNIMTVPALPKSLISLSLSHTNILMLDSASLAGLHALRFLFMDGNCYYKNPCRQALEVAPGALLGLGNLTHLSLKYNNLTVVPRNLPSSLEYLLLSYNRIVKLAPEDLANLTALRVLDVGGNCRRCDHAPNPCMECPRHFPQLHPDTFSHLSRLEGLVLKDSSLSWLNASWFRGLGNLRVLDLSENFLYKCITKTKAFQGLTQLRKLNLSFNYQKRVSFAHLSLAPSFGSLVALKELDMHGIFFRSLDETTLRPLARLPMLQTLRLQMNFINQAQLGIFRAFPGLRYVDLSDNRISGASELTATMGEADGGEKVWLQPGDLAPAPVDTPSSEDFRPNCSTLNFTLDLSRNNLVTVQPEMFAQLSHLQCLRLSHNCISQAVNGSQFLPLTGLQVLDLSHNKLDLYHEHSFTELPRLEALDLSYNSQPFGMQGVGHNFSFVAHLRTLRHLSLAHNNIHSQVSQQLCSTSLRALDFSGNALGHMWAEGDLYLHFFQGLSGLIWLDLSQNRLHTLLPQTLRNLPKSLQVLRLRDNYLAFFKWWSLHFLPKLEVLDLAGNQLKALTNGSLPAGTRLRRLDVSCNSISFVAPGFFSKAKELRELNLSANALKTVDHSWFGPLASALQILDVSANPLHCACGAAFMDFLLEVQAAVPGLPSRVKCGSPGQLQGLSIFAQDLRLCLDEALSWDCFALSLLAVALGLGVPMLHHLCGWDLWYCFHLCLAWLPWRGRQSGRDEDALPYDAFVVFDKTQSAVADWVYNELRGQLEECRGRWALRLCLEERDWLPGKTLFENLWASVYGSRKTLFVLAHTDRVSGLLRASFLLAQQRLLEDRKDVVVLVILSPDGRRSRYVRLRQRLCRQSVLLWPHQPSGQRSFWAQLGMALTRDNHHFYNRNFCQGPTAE
Experimental: HEK-Blue™-cells (Invivogen) overexpressing human TLR7, TLR8 or TLR9 receptors were used for screening inhibitors of these receptors using an inducible SEAP (secreted embryonic alkaline phosphatase) reporter gene under the control of the IFN-β minimal promoter fused to five NF-κB and AP-1-binding sites. Briefly, cells are seeded into Greiner 384 well plates (15000 cells per well for TLR7, 20,000 for TLR8 and 25,000 for TLR9) and then treated with test compounds in DMSO to yield a final dose response concentration range of 0.05 nM-50 μM. After a 30 minute compound pre-treatment at room temperature, the cells are then stimulated with a TLR7 ligand (gardiquimod at a final concentration of 7.5 μM), TLR8 ligand (R848 at a final concentration of 15.9 μM) or TLR9 ligand (ODN2006 at a final concentration of 5 nM) to activate NF-κB and AP-1 which induce the production of SEAP. After a 22 hour incubation at 37° C., 5% CO2, SEAP levels are determined with the addition of HEK-Blue™ Detection reagent (Invivogen), a cell culture medium that allows for detection of SEAP, according to manufacturer's specifications.

[4] = read-out: TLR8 IC50, HEK-Blue human TLR8 cells
[5] = read-out: TLR9 IC50, HEK-Blue human TLR9 cells
[6] = TLR8 IC50, HEK-Blue human TLR8 cells
[7] = TLR9 IC50, HEK-Blue human TLR9 cells

IC50 [1, 4] [nM]	IC50 [2] [nM]	IC50 [3, 5] [µM]	IC50 [1, 6] [nM]	IC50 [3, 7] [µM]	Compound
1.2	0.49	6.93			Cc1c(-c2[nH]c3ccc(N4CCN(C(=O)CCN(C)C)C[C@H]4C)nc3c2C(C)C)cn2ncnc2c1C [Example 823]
2.1	1.6	5.79			Cc1c(-c2[nH]c3ccc(N4CCN(C(=O)CN5CCC5)C[C@@H]4C)nc3c2C(C)C)cn2ncnc2c1C [Example 824]
1.1	0.53	6.28			Cc1c(-c2[nH]c3ccc(N4CCN(C(=O)CN5CCCC5)C[C@@H]4C)nc3c2C(C)C)cn2ncnc2c1C [Example 825]
1	0.7	15.7			Cc1c(-c2[nH]c3ccc(N4CCN(C(=O)CNC5CC5)C[C@@H]4C)nc3c2C(C)C)cn2ncnc2c1C [Example 826]
0.34	0.46	4.85			Cc1c(-c2[nH]c3ccc(N4CCN(C(=O)CNC(C)C)C[C@@H]4C)nc3c2C(C)C)cn2ncnc2c1C [Example 827]
1.4	0.88	7.16			Cc1c(-c2[nH]c3ccc(N4CCN(C(=O)C5CN(C)C5)CC4)nc3c2C(C)C)cn2ncnc2c1C [Example 828]
12	3.7	17.3			Cc1c(-c2[nH]c3ccc(N4CCN(C(=O)C5CN(C)C5)C[C@@H]4C)nc3c2C(C)C)cn2ncnc2c1C [Example 829]
0.63	0.62	7.44			CNCC(=O)N1CCN(c2ccc3[nH]c(-c4cn5ncnc5c(C)c4C)c(C(C)C)c3n2)CC1 [Example 830]
2.3	4	16.8			Cc1c(-c2[nH]c3ccc(N4CCN(C(=O)CN)CC4)nc3c2C(C)C)cn2ncnc2c1C [Example 832]
4.9	1.9	9.78			Cc1c(-c2[nH]c3ccc(N4CCN(C(C)C)C[C@H]4C)nc3c2C(C)C)cn2ncnc2c1C [Example 833]
2.5	0.46	4.37			Cc1c(-c2[nH]c3ccc(N4CCN(C(=O)CN5CCC5)C[C@H]4C)nc3c2C(C)C)cn2ncnc2c1C [Example 834]
4.1	0.7	5.56			Cc1c(-c2[nH]c3ccc(N4CCN(C(=O)CN5CCCC5)C[C@H]4C)nc3c2C(C)C)cn2ncnc2c1C [Example 835]
4.1	2.4	16.4			Cc1c(-c2[nH]c3ccc(N4CCN(C(=O)CNC5CC5)C[C@H]4C)nc3c2C(C)C)cn2ncnc2c1C [Example 836]
1.6	0.7	7.82			Cc1c(-c2[nH]c3ccc(N4CCN(C(=O)CNC(C)C)C[C@H]4C)nc3c2C(C)C)cn2ncnc2c1C [Example 837]
	0.6		3.5	9.89	[2H]C([2H])([2H])N(CC(=O)N1CCN(c2ccc3[nH]c(-c4cn5ncnc5c(C)c4C)c(C(C)C)c3n2)[C@H](C)C1)C([2H])([2H])[2H] [Example 838]
3.2	0.37	7.87			Cc1c(-c2[nH]c3ccc(N4C[C@H](C)N(C(=O)CN(C)C)C[C@H]4C)nc3c2C(C)C)cn2ncnc2c1C [Example 839]
1.5	0.38	7.4			Cc1c(-c2[nH]c3ccc(N4C[C@H](C)N(C(=O)CCN(C)C)C[C@H]4C)nc3c2C(C)C)cn2ncnc2c1C [Example 840]
28	5.6	14.3			Cc1c(-c2[nH]c3ccc(N4C[C@H](C)N(C(C)C)C[C@H]4C)nc3c2C(C)C)cn2ncnc2c1C [Example 841]
0.47	0.38	6.92			Cc1c(-c2[nH]c3ccc(N4C[C@@H](C)N(C(=O)CN(C)C)C[C@@H]4C)nc3c2C(C)C)cn2ncnc2c1C [Example 842]
1.4	0.52	5.48			Cc1c(-c2[nH]c3ccc(N4C[C@@H](C)N(C(=O)CCN(C)C)C[C@@H]4C)nc3c2C(C)C)cn2ncnc2c1C [Example 843]
11	2	8.82			Cc1c(-c2[nH]c3ccc(N4C[C@@H](C)N(C(C)C)C[C@@H]4C)nc3c2C(C)C)cn2ncnc2c1C [Example 844]
14	7.2	21.3			Cc1c(-c2[nH]c3ccc(N4C[C@H](C)N(CCCS(C)(=O)=O)C[C@H]4C)nc3c2C(C)C)cn2ncnc2c1C [Example 845]
8.3	4.9	22.5			Cc1c(-c2[nH]c3ccc(N4C[C@H](C)N(CCC(N)=O)C[C@H]4C)nc3c2C(C)C)cn2ncnc2c1C [Example 847]
2.2	1.2	17.5			Cc1c(-c2[nH]c3ccc(N4C[C@@H](C)N(CCC(N)=O)C[C@@H]4C)nc3c2C(C)C)cn2ncnc2c1C [Example 848]

IC50 [1, 4] [nM]	IC50 [2] [nM]	IC50 [3, 5] [µM]	IC50 [1, 6] [nM]	IC50 [3, 7] [µM]	Compound
1.6	0.72	6.54			Cc1c(-c2[nH]c3ccc(N4CCN(C(=O)CCN(C)C)[C@H](C)C4)nc3c2C(C)C)cn2ncnc2c1C [Example 850]
2.2	5.9	9.98			Cc1c(-c2[nH]c3ccc(N4CCN(C(C)C)[C@H](C)C4)nc3c2C(C)C)cn2ncnc2c1C [Example 851]
0.82	5.2	16.2			Cc1c(-c2[nH]c3ccc(N4CCN(CCC(N)=O)[C@H](C)C4)nc3c2C(C)C)cn2ncnc2c1C [Example 852]
5	11	32.3			Cc1c(-c2[nH]c3ccc(N4CCN(C(=O)C5(N(C)C)CC5)CC4)nc3c2C(C)C)cn2ncnc2c1C [Example 854]
0.46	7.3	27.1			Cc1c(-c2[nH]c3ccc(N4CCN(CCCS(C)(=O)=O)[C@H](C)C4)nc3c2C(C)C)cn2ncnc2c1C [Example 856]
	0.65		0.4	4.4	[2H]C1([2H])NC([2H])([2H])C([2H])([2H])N(c2ccc3[nH]c(-c4cn5ncnc5c(C)c4C)c(C(C)C)c3n2)C1([2H])[2H] [Example 857]
0.62	0.3	5.06			Cc1c(-c2[nH]c3ccc(N4C[C@@H](C)N(C(=O)CCN(C)C)[C@@H](C)C4)nc3c2C(C)C)cn2ncnc2c1C [Example 860]
4.2	0.31	5.01			Cc1c(-c2[nH]c3ccc(N4[C@H](C)CNC[C@H]4C)nc3c2C(C)C)cn2ncnc2c1C [Example 861]
2.2	0.29	7.04			Cc1c(-c2[nH]c3ccc(N4C[C@@H](C)N(C(=O)CN(C)C)[C@@H](C)C4)nc3c2C(C)C)cn2ncnc2c1C [Example 862]
17	0.52	6.07			Cc1c(-c2[nH]c3ccc(N4[C@H](C)CN(C(=O)CN(C)C)C[C@H]4C)nc3c2C(C)C)cn2ncnc2c1C [Example 863]
12	1.5	5.69			Cc1c(-c2[nH]c3ccc(N4[C@H](C)CN(C(=O)CCN(C)C)C[C@H]4C)nc3c2C(C)C)cn2ncnc2c1C [Example 864]
72	1.3	8.89			Cc1c(-c2[nH]c3ccc(N4[C@H](C)CN(C(C)C)C[C@H]4C)nc3c2C(C)C)cn2ncnc2c1C [Example 865]
74	3.2	47.6			Cc1c(-c2[nH]c3ccc(N4[C@H](C)CN(CC(N)=O)C[C@H]4C)nc3c2C(C)C)cn2ncnc2c1C [Example 866]
11	4.5	> 50			Cc1c(-c2[nH]c3ccc(N4C[C@@H](C)N(CC(N)=O)[C@@H](C)C4)nc3c2C(C)C)cn2ncnc2c1C [Example 867]
6.1	12	> 50			Cc1c(-c2[nH]c3ccc(N4C[C@@H](C)N(CCCS(C)(=O)=O)[C@@H](C)C4)nc3c2C(C)C)cn2ncnc2c1C [Example 868]
34	1.9	40.3			Cc1c(-c2[nH]c3ccc(N4[C@H](C)CN(CCCS(C)(=O)=O)C[C@H]4C)nc3c2C(C)C)cn2ncnc2c1C [Example 869]
3.3	0.56	14.4			CCN(C)CC(=O)N1CCN(c2ccc3[nH]c(-c4cn5ncnc5c(C)c4C)c(C(C)C)c3n2)CC1 [Example 870]
5.1	1.6	12.7			CCN(CC)CC(=O)N1CCN(c2ccc3[nH]c(-c4cn5ncnc5c(C)c4C)c(C(C)C)c3n2)CC1 [Example 871]
3.8	0.97	9.54			Cc1c(-c2[nH]c3ccc(N4CCN(C(=O)CN(C)C(C)C)CC4)nc3c2C(C)C)cn2ncnc2c1C [Example 872]
1.8	3.1	12.8			CCCN(C)CC(=O)N1CCN(c2ccc3[nH]c(-c4cn5ncnc5c(C)c4C)c(C(C)C)c3n2)CC1 [Example 873]
5.3	1.2	15.5			CCCCN(C)CC(=O)N1CCN(c2ccc3[nH]c(-c4cn5ncnc5c(C)c4C)c(C(C)C)c3n2)CC1 [Example 874]
3.2	6.6	40.5			Cc1c(-c2[nH]c3ccc(N4CCN(C(=O)CN(C)CC(C)C)CC4)nc3c2C(C)C)cn2ncnc2c1C [Example 875]
517	644	13.3			CCCCN(CC)CC(=O)N1CCN(c2ccc3[nH]c(-c4cn5ncnc5c(C)c4C)c(C(C)C)c3n2)CC1 [Example 876]

Compound	IC50 [1, 4] [nM]	IC50 [2] [nM]	IC50 [3, 5] [µM]	IC50 [1, 6] [nM]	IC50 [3, 7] [µM]
Cc1c(-c2[nH]c3ccc(N4CCN(C(=O)[C@H](C)N(C)C)CC4)nc3c2C(C)C)cn2ncnc2c1C [Example 853]	0.66	0.51	9.57		
